“Also recorded” adds a separate entry of the source.

Holding throughout (format): cell-based, human
One series deals with U251 cells. Nature of the series: 10-14 day Clonagenicity Assay (MTT), U251. Conditions: U251, clonagenicity assay, dilution point of maximum toxicity; for percentage survival relative to the missense, n = 1: independent experiment n = 1; for percentage survival relative to the missense, n = 2: independent experiment n = 2; for percentage survival relative to the missense, n = 3: independent experiment n = 3. The method in brief: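 U251 cells were seeded in a 96-well plate, left overnight to adhere at 37° C. in humidified 5% CO2, and serially diluted 1 in 2 from Column 1 to 6. They were transfected for 4 hrs with siRNA oligomers at 2 μg/ml, given fresh medium, changed again at 24 hrs, then incubated 10-14 days with weekly renewal. MTT conversion measured cell number; survival was expressed versus missense control.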

The subject of a further series is PC3 cells. Put plainly: Cell Migration Assay (Chemicon ECM550, Boyden Chamber). Conditions: 48 hours post siRNA transfection, 24-hour migration, compared to missense and UPA controls. How it is done: Cells are seeded into a 6-well plate and allowed to adhere overnight at 37° C. in a humidified atmosphere containing 5% CO2 in air. Cells are next transfected with siRNA oligonucleotides, at a concentration of 2 μg/ml, against the genes of interest, as described in detail in Example 5. Transfections are continued for 4 hrs after which the transfection solution is removed and cells are refed with fresh medium and allowed incubate overnight. Transfected cells are next harvested for seeding into migration assay as described below.
The Chemicon Cell Migration Assay (ECM550) is used to quantify the number of PC3 cells that successfully migrate across a Boyden Chamber towards a chemoattractant over a 24-hour incubation period. Assessment of PC3 cell migration is performed routinely 48 hours post siRNA Transfection. The effect of reducing the expression of genes of interest is compared to that of a missense control oligomer and to the influence of UPA knockdown, which is reported in the literature to decrease PC3 cell migration. The Migration Assay is performed as per manufacturers inductions. Results are illustrated in FIGS. 39 to 41.
Cells were plated and transfected with the indicated siRNA as described above. Migration of PC3 cells was tracked using a fluorescent dye. Consequently increases in fluorescent units correlates positively with increased migration.

The subject of a further series is HCT15 cells. Nature of the series: Anchorage Independence/Soft Agar Assay, HCT15. Also on record: PERCENTAGE SURVIVAL RELATIVE TO MS, HCT15, n = 2: tested at 2 µg; PERCENTAGE SURVIVAL RELATIVE TO MS, HCT15, n = 1: tested at 2 µg siRNA. Conditions: soft agar; for PERCENTAGE SURVIVAL RELATIVE TO MS, HCT15, n = 1: experiment n = 1; for PERCENTAGE SURVIVAL RELATIVE TO MS, HCT15, n = 2: experiment n = 2. The method in brief: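 Cells were transfected for 4 h with 2 μg siRNA against target genes, then seeded at 5×10^4 cells/well in 0.05% agar/medium and grown 12/14 days at 37 °C, 5% CO2. Crystal violet-stained colonies were counted at 4× and morphology assessed; survival expressed relative to missense siRNA control.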

The subject of the next series is cancer cell lines. Put plainly: Anchorage Independence/Soft Agar Assay, summary over the cell lines. Conditions: 14-day anchorage independent assay, over the cell lines examined. Here is the method: The Anchorage Independence/Soft Agar Assay allows assessment of the influence of modulation of gene expression on clonal tumouroid formation by observing and quantifying tumouroid morphology and colony number over an extended period of logarithmic growth thereby ascertaining any cell death is induced.
Cells are seeded into a 6-well plate and allowed to adhere overnight at 37° C. in a humidified atmosphere containing 5% CO2 in air. Cells are next transfected with siRNA Oligomers, at a concentration of 2 μg, against the genes of interest. Transfections continued for 4 hrs after which the transfection solution is removed and cells are refed with fresh medium and allowed incubate overnight. Transfected cells are next harvested for seeding into soft agar assay as described below. Cells are seeded at 5×10^4 cells per well of a 6 well plate and incubated over a 12/14-Day period whilst proliferating in a 0.05% Agar/Medium cell suspension at 37° C. in a humidified atmosphere containing 5% CO2 in air. Colonies formed are subsequently stained with Crystal Violet, their morphology is assessed and colonies formed are enumerated at a 4× magnification.
The cytotoxic effect of each gene is determined by a reduction in colony number compared to our MS control, but any influence on the morphology of the colony is also noted.
As an internal reference, the known survival gene ‘Survivin’ was also targeted by siRNA.

For “siRNA MAK: sense GAAGCCAAGCAUGGGUGUUtt, antisense AACACCCAUGCUUGGCUUCtt (sense GAAGCCAAGCAUGGGUGUUTT; antisense AACACCCAUGCUUGGCUUCTT; chemistry not given here)”, in the series on U251 cells, the “percentage survival relative to the missense, n = 1” value is on record as 11.5%; the “percentage survival relative to the missense, n = 2” value is given as 49.1%; the “percentage survival relative to the missense, n = 3” value was determined as 58.7%. In the series with PC3 cells, the “migration of PC3 cells” value is recorded as “increases the ability of cancer cells to migrate”.

As to “siRNA P14KB: sense GCUACGGAAGCUGAUCCUCtt, antisense GAGGAUCAGCUUCCGUAGCtt (sense GCUACGGAAGCUGAUCCUCTT; antisense GAGGAUCAGCUUCCGUAGCTT; chemistry not given here)”, in the series with U251 cells, the “percentage survival relative to the missense, n = 1” value was found to be 12.3%; the “percentage survival relative to the missense, n = 2” value was 65%; the “percentage survival relative to the missense, n = 3” value came out at 28.3%. The “migration of PC3 cells” value with PC3 cells was “no influence on the migration”.

With “siRNA FLT4: sense GUACGGCAACCUCUCCAACtt, antisense GUUGGAGAGGUUGCCGUACtt (sense GUACGGCAACCUCUCCAACTT; antisense GUUGGAGAGGUUGCCGUACTT; chemistry not given here)”, in the series on U251 cells, the “percentage survival relative to the missense, n = 2” value is on record as 63% and the “percentage survival relative to the missense, n = 3” value is listed as 30.9%. Further, the “migration of PC3 cells” value in the series on PC3 cells is “inhibition of migration”.

Turning to “siRNA MKNK: sense UACAUGGCCCCUGAGGUAGtt, antisense CUACCUCAGGGGCCAUGUAtt (sense UACAUGGCCCCUGAGGUAGTT; antisense CUACCUCAGGGGCCAUGUATT; chemistry not given here)”, in the series with U251 cells, the “percentage survival relative to the missense, n = 1” value is on record as 33.6%; the “percentage survival relative to the missense, n = 2” value is 59.5%; the “percentage survival relative to the missense, n = 3” value worked out at 69%. Moreover, in the series with HCT15 cells, the “PERCENTAGE SURVIVAL RELATIVE TO MS, HCT15, n = 1” value worked out at 66.3% and the “PERCENTAGE SURVIVAL RELATIVE TO MS, HCT15, n = 2” value is 90.9%. The “cell death / apoptosis in the soft agar assay” value (shortened to “cell death / apoptosis”) in the series with cancer cell lines was “induced cell death consistently in 2 of the cell lines examined”. For the same substance, in the series on PC3 cells, the “migration of PC3 cells” value is recorded as “inhibition of migration”.

For “siRNA PSKH1: sense GAACCUGCACCGCUCCAUAtt, antisense UAUGGAGCGGUGCAGGUUCtt (sense GAACCUGCACCGCUCCAUATT; antisense UAUGGAGCGGUGCAGGUUCTT; chemistry not given here)”, in the series with U251 cells, the “percentage survival relative to the missense, n = 1” value worked out at 60.5% and the “percentage survival relative to the missense, n = 3” value is reported as 56.9%. In the series on HCT15 cells, the “PERCENTAGE SURVIVAL RELATIVE TO MS, HCT15, n = 1” value amounted to 37.2% and the “PERCENTAGE SURVIVAL RELATIVE TO MS, HCT15, n = 2” value worked out at 41%. Also, in the series with cancer cell lines, the “cell death / apoptosis” value was “modulates apoptosis; also recorded: significant cell death in all cell lines”. In addition, in the series on PC3 cells, the “migration of PC3 cells” value is recorded as “increases the ability of cancer cells to migrate”.

As to “siRNA MAPKK5: sense GAGGACAGGUUAAGCUGUGtt, antisense CACAGCUUAACCUGUCCUCtt (sense GAGGACAGGUUAAGCUGUGTT; antisense CACAGCUUAACCUGUCCUCTT; chemistry not given here)”, in the series with U251 cells, the “percentage survival relative to the missense, n = 1” value stood at 44.8%; the “percentage survival relative to the missense, n = 2” value came to 51.4%; the “percentage survival relative to the missense, n = 3” value came to 12.4%. In addition, the “migration of PC3 cells” value in the series with PC3 cells is “no influence on the migration”.

Consider “siRNA PCTAIRE: sense GUCAGUGCCCACAAAGACUtt, antisense AGUCUUUGUGGGCACUGACtt (sense GUCAGUGCCCACAAAGACUTT; antisense AGUCUUUGUGGGCACUGACTT; chemistry not given here)”, for which, in the series on U251 cells, the “percentage survival relative to the missense, n = 1” value stood at 24.2%; the “percentage survival relative to the missense, n = 2” value came out at 42.7%; the “percentage survival relative to the missense, n = 3” value is recorded as 1.6%. Further, in the series with PC3 cells, the “migration of PC3 cells” value is “inhibition of migration”.

As for “siRNA ROCK: siRNA duplex, sense UACAUGCCUGGUGGAGAUCtt, antisense GAUCUCCACCAGGCAUGUAtt; same in Tables 9 and 11 (sense UACAUGCCUGGUGGAGAUCTT; antisense GAUCUCCACCAGGCAUGUATT; chemistry not given here)”, in the series with U251 cells, the “percentage survival relative to the missense, n = 1” value came to 13.8%; the “percentage survival relative to the missense, n = 2” value was determined as 58.2%; the “percentage survival relative to the missense, n = 3” value worked out at 19.8%.

“siRNA NTKL: siRNA duplex, sense UGUGGAGCUGAUGAAGCACtt, antisense GUGCUUCAUCAGCUCCACAtt; same in Tables 9 and 11 (sense UGUGGAGCUGAUGAAGCACTT; antisense GUGCUUCAUCAGCUCCACATT; chemistry not given here)”: in the series with U251 cells, the “percentage survival relative to the missense, n = 1” value came to 9.5%; the “percentage survival relative to the missense, n = 2” value is on record as 20.9%; the “percentage survival relative to the missense, n = 3” value is listed as 17.1%.

Take “siRNA EKI: siRNA duplex, sense GCACUGGAUCCAAAGCAUGtt, antisense CAUGCUUUGGAUCCAGUGCtt; same in Tables 9 and 11 (sense GCACUGGAUCCAAAGCAUGTT; antisense CAUGCUUUGGAUCCAGUGCTT; chemistry not given here)”: in the series on U251 cells, the “percentage survival relative to the missense, n = 1” value was 62.3%.

With “siRNA Survivin: positive control siRNA, sense GAACUGGCCCUUCUUGGAGtt, antisense CUCCAAGAAGGGCCAGUUCtt (sense GAACUGGCCCUUCUUGGAGTT; antisense CUCCAAGAAGGGCCAGUUCTT; chemistry not given here) [reference compound]”, in the series with U251 cells, the “percentage survival relative to the missense, n = 1” value is given as 45.9%; the “percentage survival relative to the missense, n = 2” value is listed as 64.6%; the “percentage survival relative to the missense, n = 3” value worked out at 76.4%. Further, in the series with HCT15 cells, the “PERCENTAGE SURVIVAL RELATIVE TO MS, HCT15, n = 1” value is reported as 71.5% and the “PERCENTAGE SURVIVAL RELATIVE TO MS, HCT15, n = 2” value is recorded as 48.6%. Besides, the “cell death / apoptosis” value with cancer cell lines was “induced cell death in all cell lines”.

“siRNA MPSK1: sense GGGUUAUGCCCACAGAGACtt, antisense GUCUCUGUGGGCAUAACCCtt (sense GGGUUAUGCCCACAGAGACTT; antisense GUCUCUGUGGGCAUAACCCTT; chemistry not given here)”: in the series with HCT15 cells, the “PERCENTAGE SURVIVAL RELATIVE TO MS, HCT15, n = 1” value is given as 42.3% and the “PERCENTAGE SURVIVAL RELATIVE TO MS, HCT15, n = 2” value stood at 62.2%. The “cell death / apoptosis” value in the series on cancer cell lines is given as “significant cell death in all cell lines”. The “migration of PC3 cells” value with PC3 cells is “inhibition of migration”.

These data come from patent US20050019746A1, “Apoptosis-related kinase/GPCRs” (EiRx Therapeutics Limited, priority 2003, published 2005).
